pEC50: −log10 of the molar value.
Key:
E. coli K12 PBP2 = target: T1, E. coli K12 PBP2 (Escherichia coli, UniProt P0AD65); test: Bocillin-FL fluorescence polarization competition binding assay, E. coli PBP2
T1 construct: made in house
Source text: (§1) Example I: Experimental Method for Penicillin-Binding Protein Binding Assays with Bocillin-FL Via Fluorescence Polarization
(§2) To determine the ability of boronic acid-based test PBP inhibitors to bind Penicillin Binding Proteins (PBPs), Bocillin-FL (fluorescently-labeled penicillin V; ThermoFisher Scientific) was used in a fluorescence polarization (FP) competition binding assay to assess inhibitor binding to PBP2, PBP3 or PBP4 from Escherichia coli (K12), PBP3 from Pseudomonas aeruginosa (PA01), PBP1a, PBP2 and PBP3 from Acinetobacter baumannii (ATCC 19606), and PBP2 from Neiserria gonorrheae (FA19). PBPs were cloned and purified as described previously (E. coli PBPs, King, D. T, et al., ACS Infectious Diseases 2015, 1, 175-184; P. aeruginosa PBP3, Han et. al., PNAS 2010, 107 (51), 22002-22007; A. baumannii PBPs, Penwell et. al., Antimicrob. Agents Chemother. 2015, 59 (3), 1680-1689; N. gonorrhoeae PBP2, Singh et. al., J Biol. Chem. 2019, 294 (38), 14020-14032). To establish assay conditions for competition binding, enzyme titration/saturation binding experiments were initially performed. Bocillin-FL was prepared at 0.2 μM in a buffer comprised of 50 mM Hepes (pH 8.0), 300 mM NaCl and 5% (v/v) glycerol for reactions with E. coli, P. aeruginosa and N. gonorrhoeae PBPs, and 25 mM Tris (pH 8.0), 200 mM NaCl and 10% (v/v) glycerol and 0.005% (v/v) Tween 20 for reactions with A. baumannii PBPs. Saturation binding was performed by mixing 40 μl of PBP solutions ranging in concentrations from 0-24 μM with 40 μl of the 0.2 μM Bocillin-FL solution, in individual wells of a black 384-well microplate. FP was measured immediately upon mixing (Excitation, 490 nm; Emission, 520 nm; g-factor, 0.96), using a Cytation3 (BioTek) microplate reader and measured continuously for up to 120 minutes. […] Bocillin-FL was added and the FP immediately measured for up to 60 minutes (90 minutes for E. coli PBP2). […]

A. baumannii PBP2 = target: T2, A. baumannii PBP2 (Acinetobacter baumannii, UniProt D0C8Z9); test: Bocillin-FL fluorescence polarization competition binding assay, A. baumannii PBP2
T2 construct: made in house
T2 sequence (D0C8Z9 1-672): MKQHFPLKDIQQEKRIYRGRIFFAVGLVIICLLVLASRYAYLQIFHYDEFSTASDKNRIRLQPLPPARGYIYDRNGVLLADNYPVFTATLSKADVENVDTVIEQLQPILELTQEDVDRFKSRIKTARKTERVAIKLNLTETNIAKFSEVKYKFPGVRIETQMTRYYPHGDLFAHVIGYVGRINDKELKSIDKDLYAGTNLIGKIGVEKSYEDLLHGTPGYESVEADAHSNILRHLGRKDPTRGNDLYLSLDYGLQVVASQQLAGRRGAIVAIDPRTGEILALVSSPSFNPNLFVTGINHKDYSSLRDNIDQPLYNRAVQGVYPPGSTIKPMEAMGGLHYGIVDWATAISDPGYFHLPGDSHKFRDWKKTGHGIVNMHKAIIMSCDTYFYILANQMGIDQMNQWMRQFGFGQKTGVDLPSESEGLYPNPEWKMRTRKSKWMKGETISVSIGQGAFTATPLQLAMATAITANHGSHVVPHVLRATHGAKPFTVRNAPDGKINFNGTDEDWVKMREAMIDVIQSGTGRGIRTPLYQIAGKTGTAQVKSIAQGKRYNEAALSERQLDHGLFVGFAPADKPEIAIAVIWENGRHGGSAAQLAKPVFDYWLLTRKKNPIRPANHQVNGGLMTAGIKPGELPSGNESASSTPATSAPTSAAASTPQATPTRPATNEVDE
Source text: as §1
(§3) To determine the ability of boronic acid-based test PBP inhibitors to bind Penicillin Binding Proteins (PBPs), Bocillin-FL (fluorescently-labeled penicillin V; ThermoFisher Scientific) was used in a fluorescence polarization (FP) competition binding assay to assess inhibitor binding to PBP2, PBP3 or PBP4 from Escherichia coli (K12), PBP3 from Pseudomonas aeruginosa (PA01), PBP1a, PBP2 and PBP3 from Acinetobacter baumannii (ATCC 19606), and PBP2 from Neiserria gonorrheae (FA19). PBPs were cloned and purified as described previously (E. coli PBPs, King, D. T, et al., ACS Infectious Diseases 2015, 1, 175-184; P. aeruginosa PBP3, Han et. al., PNAS 2010, 107 (51), 22002-22007; A. baumannii PBPs, Penwell et. al., Antimicrob. Agents Chemother. 2015, 59 (3), 1680-1689; N. gonorrhoeae PBP2, Singh et. al., J Biol. Chem. 2019, 294 (38), 14020-14032). To establish assay conditions for competition binding, enzyme titration/saturation binding experiments were initially performed. Bocillin-FL was prepared at 0.2 μM in a buffer comprised of 50 mM Hepes (pH 8.0), 300 mM NaCl and 5% (v/v) glycerol for reactions with E. coli, P. aeruginosa and N. gonorrhoeae PBPs, and 25 mM Tris (pH 8.0), 200 mM NaCl and 10% (v/v) glycerol and 0.005% (v/v) Tween 20 for reactions with A. baumannii PBPs. Saturation binding was performed by mixing 40 μl of PBP solutions ranging in concentrations from 0-24 μM with 40 μl of the 0.2 μM Bocillin-FL solution, in individual wells of a black 384-well microplate. FP was measured immediately upon mixing (Excitation, 490 nm; Emission, 520 nm; g-factor, 0.96), using a Cytation3 (BioTek) microplate reader and measured continuously for up to 120 minutes. […] The competition binding assay (80 μl final volume) was validated using beta-lactams and PBPs at final concentrations of: 1.5 μM, E. coli PBP3; 0.75 μM, P. aeruginosa PBP3; 1 μM A. baumannii PBP1a; 2.5 μM A. baumannii PBP2; 0.2 μM A. baumannii PBP3; and […] N. gonorrhoeae PBP2. Bocillin-FL was at 0.1 μM (0.05 μM with A. baumannii PBP1a) and beta-lactam concentrations ranged from 0-1000 μM. […] Bocillin-FL was added and the FP immediately measured for up to 60 minutes (90 minutes for E. coli PBP2). […] The beta-lactam potency was reported as the concentration of beta-lactam required to reduce the amount of PBP bound-Bocillin-FL by 50% (EC50). […] Binding assays for boronic acid PBP inhibitors were performed in an identical fashion for the respective PBPs

E. coli K12 PBP4 = target: T3, E. coli K12 PBP4 (Escherichia coli, UniProt P24228); test: Bocillin-FL fluorescence polarization competition binding assay, E. coli PBP4; settings: E. coli PBP4; assay validation with beta-lactams; read-out: EC50 (concentration of beta-lactam required to reduce the amount of PBP bound-Bocillin-FL by 50%)
T3 construct: made in house
Source text: as §1, §2

A. baumannii PBP1a = A. baumannii PBP1a (Acinetobacter baumannii, UniProt A0ABX6CK30); test: Bocillin-FL fluorescence polarization competition binding assay, A. baumannii PBP1a
Source text: as §1, §3

A. baumannii PBP3 = A. baumannii PBP3 (Acinetobacter baumannii, UniProt A0ABX6CK25); test: Bocillin-FL fluorescence polarization competition binding assay, A. baumannii PBP3
Procedure, shortened: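 Fluorescence polarization (ex 490/em 520 nm) competition of inhibitors against Bocillin-FL at 0.1 μM, read up to 60 min. Final PBP levels: E. coli PBP3 1.5 μM; A. baumannii PBP2 2.5 μM, PBP3 0.2 μM in Tris pH 8.0/NaCl/glycerol/Tween 20; N. gonorrhoeae PBP2 […] in Hepes pH 8.0/NaCl/glycerol. EC50 = concentration halving PBP-bound Bocillin-FL.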

| SMILES | pEC50 (E. coli K12 PBP2) | pEC50 (A. baumannii PBP2) | pEC50 (E. coli K12 PBP4) | pEC50 (A. baumannii PBP1a) | pEC50 (A. baumannii PBP3) |
| --- | --- | --- | --- | --- | --- |
| CC1(C)S[C@@H]2[C@H](/N=C/N3CCCCCC3)C(=O)N2[C@H]1C(=O)O [mecillinam, reference compound] | 5.68 | 6.40 |  |  |  |
| C[C@@H](O)[C@H]1C(=O)N2C(C(=O)O)=C(S[C@@H]3CN[C@H](C(=O)N(C)C)C3)[C@H](C)[C@H]12 [meropenem, reference compound] |  |  | > 5.70 | 6.64 | 6.64 |
